Data on 1 molecule can be found in US20210186977A1, “MEDICAL USES” (priority 2018, published 2021).

In this assay the test system is Herpes Zoster (varicella zoster virus). Kind of assay: Valaciclovir prophylaxis against HZ activation in patients receiving CellProtect infusions. In kind it is in vivo, human. Conditions: 500 mg twice daily for 6 months following infusions; patients 110 and 111; within 12 months following prophylaxis. As for the experimental part:
Since the development of HZ was clearly associated with the NK cell infusions in the first four patients the last two patients (110 and 111) were treated with high dose valaciclovir, 500 mg twice daily for 6 months following the infusions.

`CC(C)[C@H](N)C(=O)OCCOCn1cnc2c(=O)[nH]c(N)nc21` [valaciclovir]: the “Signs of HZ activation” value was “did not show any signs of HZ activation”.
